Source: the NIST ThermoML archive (doi:10.1016/j.jct.2016.03.026)

Assay: xn = mol fraction of the nth substance listed
Conditions: 283.15 K, Fluid (supercritical or subcritical phases), Vibrating tube method, x1 = 0.97

O=C=O [carbon dioxide] + CO
Conditions | mass density [kg/m3]
10450 kPa | 927.45
10475 kPa | 927.61
10500 kPa | 927.78
10525 kPa | 927.92
10550 kPa | 928.1
10575 kPa | 928.27
10600 kPa | 928.46
10625 kPa | 928.66
10650 kPa | 928.76
10675 kPa | 928.84
10700 kPa | 929
10725 kPa | 929.16
10750 kPa | 929.25
10775 kPa | 929.45
10800 kPa | 929.62
10825 kPa | 929.74
10850 kPa | 929.88
10875 kPa | 930.06
10900 kPa | 930.27
10925 kPa | 930.41
10950 kPa | 930.57
10975 kPa | 930.73
11000 kPa | 930.89
11025 kPa | 931.03
11050 kPa | 931.19
11075 kPa | 931.33
11100 kPa | 931.58
11125 kPa | 931.69
11150 kPa | 931.86
11175 kPa | 932.02
11200 kPa | 932.18
11225 kPa | 932.34
11250 kPa | 932.51
11275 kPa | 932.67
11300 kPa | 932.9
11325 kPa | 933.08
11350 kPa | 933.16
11375 kPa | 933.37
11400 kPa | 933.49
11425 kPa | 933.66
11450 kPa | 933.88
11475 kPa | 933.98
11500 kPa | 934.17
11525 kPa | 934.39
11550 kPa | 934.47
11575 kPa | 934.64
11600 kPa | 934.8
11625 kPa | 934.96
11650 kPa | 935.12
11675 kPa | 935.29
11700 kPa | 935.45
11725 kPa | 935.61
11750 kPa | 935.78
11775 kPa | 935.94
11800 kPa | 936.1
11825 kPa | 936.26
11850 kPa | 936.43
11875 kPa | 936.59
11900 kPa | 936.74
11925 kPa | 936.92
11950 kPa | 937.07
11975 kPa | 937.23
12000 kPa | 937.33
12025 kPa | 937.53
12050 kPa | 937.68
12075 kPa | 937.82
12100 kPa | 937.98
12125 kPa | 938.14
12150 kPa | 938.31
12175 kPa | 938.47
12200 kPa | 938.63
12225 kPa | 938.8
12250 kPa | 938.96
12275 kPa | 939.1
12300 kPa | 939.21
12325 kPa | 939.37
12350 kPa | 939.53
12375 kPa | 939.7
12400 kPa | 939.86
12425 kPa | 940.02
12450 kPa | 940.19
12475 kPa | 940.27
12500 kPa | 940.45
12525 kPa | 940.59
12550 kPa | 940.76
12575 kPa | 940.92
12600 kPa | 941.08
12625 kPa | 941.25
12650 kPa | 941.41
12675 kPa | 941.57
12700 kPa | 941.74
12725 kPa | 941.87
12750 kPa | 942.06
12775 kPa | 942.16
12800 kPa | 942.34
12825 kPa | 942.47
12850 kPa | 942.63
12875 kPa | 942.8
12900 kPa | 942.96
12925 kPa | 943.13
12950 kPa | 943.22
12975 kPa | 943.37
13000 kPa | 943.53
13025 kPa | 943.7
13050 kPa | 943.86
13075 kPa | 944.02
13100 kPa | 944.17
13125 kPa | 944.27
13150 kPa | 944.43
13175 kPa | 944.59
13200 kPa | 944.76
13225 kPa | 944.92
13250 kPa | 945.05
13275 kPa | 945.17
13300 kPa | 945.33
13325 kPa | 945.49
13350 kPa | 945.66
13375 kPa | 945.77
13400 kPa | 945.9
13425 kPa | 946.06
13450 kPa | 946.23
13475 kPa | 946.39
13500 kPa | 946.47
13525 kPa | 946.63
13550 kPa | 946.8
13575 kPa | 946.94
13600 kPa | 947.04
13625 kPa | 947.2
13650 kPa | 947.37
13675 kPa | 947.53
13700 kPa | 947.69
13725 kPa | 947.78
13750 kPa | 947.94
13775 kPa | 948.1
13800 kPa | 948.24
13825 kPa | 948.4
13850 kPa | 948.51
13875 kPa | 948.67
13900 kPa | 948.84
13925 kPa | 948.95
13950 kPa | 949.1
13975 kPa | 949.24
14000 kPa | 949.41
14025 kPa | 949.51
14050 kPa | 949.65
14075 kPa | 949.82
14100 kPa | 949.98
14125 kPa | 950.11
14150 kPa | 950.22
14175 kPa | 950.39
14200 kPa | 950.55
14225 kPa | 950.7
14250 kPa | 950.8
14275 kPa | 950.96
14300 kPa | 951.12
14325 kPa | 951.2
14350 kPa | 951.37
14375 kPa | 951.51
14400 kPa | 951.61
14425 kPa | 951.77
14450 kPa | 951.93
14475 kPa | 952.09
14500 kPa | 952.19
14525 kPa | 952.37
14550 kPa | 952.51
14575 kPa | 952.59
14600 kPa | 952.75
14625 kPa | 952.93
14650 kPa | 953.08
14675 kPa | 953.17
14700 kPa | 953.32
14725 kPa | 953.48
14750 kPa | 953.62
14775 kPa | 953.73
14800 kPa | 953.88
14825 kPa | 954.02
14850 kPa | 954.14
14875 kPa | 954.28
14900 kPa | 954.41
14925 kPa | 954.57
14950 kPa | 954.68
14975 kPa | 954.79
15000 kPa | 954.95
15025 kPa | 955.09
15050 kPa | 955.2
15075 kPa | 955.36
15100 kPa | 955.44
15125 kPa | 955.6
15150 kPa | 955.77
15175 kPa | 955.88
15200 kPa | 956.01
15225 kPa | 956.18
15250 kPa | 956.27
15275 kPa | 956.42
15300 kPa | 956.56
15325 kPa | 956.66
15350 kPa | 956.78
15375 kPa | 956.93
15400 kPa | 957.07
15425 kPa | 957.17
15450 kPa | 957.32
15475 kPa | 957.47
15500 kPa | 957.56
15525 kPa | 957.72
15550 kPa | 957.84
15575 kPa | 957.97
15600 kPa | 958.13
15625 kPa | 958.22
15650 kPa | 958.37
15675 kPa | 958.52
15700 kPa | 958.62
15725 kPa | 958.78
15750 kPa | 958.89
15775 kPa | 959.05
15800 kPa | 959.19
15825 kPa | 959.3
15850 kPa | 959.43
15875 kPa | 959.55
15900 kPa | 959.71
15925 kPa | 959.84
15950 kPa | 959.94
15975 kPa | 960.09
16000 kPa | 960.25
16025 kPa | 960.33
16050 kPa | 960.49
16075 kPa | 960.6
16100 kPa | 960.74
16125 kPa | 960.89
16150 kPa | 960.98
16175 kPa | 961.15
16200 kPa | 961.23
16225 kPa | 961.39
16250 kPa | 961.53
16275 kPa | 961.63
16300 kPa | 961.74
16325 kPa | 961.89
16350 kPa | 962.02
16375 kPa | 962.15
16400 kPa | 962.28
16425 kPa | 962.42
16450 kPa | 962.53
16475 kPa | 962.61
16500 kPa | 962.78
16525 kPa | 962.86
